Test results as given in paper PMC6394990, “Detailed characterization of the solution kinetics and thermodynamics of biotin, biocytin and HABA binding to avidin and streptavidin” (PLoS ONE, 2019).
Values joined by “and” are separate entries in the source; they are usually repeats but may differ in a detail not shown here. Equal values may be shown once. Read-outs that look alike come from different tables or passages of the source.

Biological target: T1, avidin (AV) (Gallus gallus, UniProt P02701)
T1 construct: purchased Calbiochem (La Jolla, CA)
T1 sequence (P02701 25-152): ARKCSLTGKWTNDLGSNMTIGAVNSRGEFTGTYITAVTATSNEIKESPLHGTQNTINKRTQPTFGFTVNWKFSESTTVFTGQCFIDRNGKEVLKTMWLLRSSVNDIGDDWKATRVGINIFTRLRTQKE
Test: Stopped-flow association kinetics of dye-labeled biotin probes binding to avidin (F(t), rF(t); Arrhenius plots/global fitting)
Design: ln(k) / dS+ / dG+ / Eon for BFl / b of the line y = m1x+b1: unit not given here
Conditions: for k(average): k (full value); for ΔG^ǂ / ΔS^ǂ: forward; for kcal/mol (from Arrhenius slope): the values are: Ea forward; for Temperature at which the rate constants of AV and SAV reacting with BcO are the same, x: crossing of the AV and SAV lines; for half-time of association, rF¯(t) / halftime of association, rF¯(t): probe 20 nM; for half-time of association, rF¯(t): AV 260 nM
Description: These reactions were carried out in a buffered solution of 10 mM Tris-HCl, 100 mM KCl, 2.5 mM MgCl2 and 1 mM CaCl2 at pH 8 and only AV-BcO reactions included pH 9 and 10. The concentrations, after mixing, were of 20 nM of dye-labeled B7 probe and 260 nM, 520 nM or 1040 nM of AV; and 200 nM, 300 nM, 400 nM or 800 nM of SAV at temperatures of 10, 15, 20 and 25°C. The deglycosylation of AV (for comparative association reactions) was carried out using the provided standard protocol with endoglycosidase H [47], both with and without incubation of a denaturant solution (2% SDS and 1M 2-mercaptoethanol).
The reactions were collected with the SF instrument, described previously. The fluorescence signal was collected through a 520 nm interference filter (Oriel Corp., Stratford, CT) with a detector time constant and SF dead time of 1 μs and 1 ms, respectively. The excitation light was provided by the Coherent Ar^+ ion laser (described above) at 488 nm with […] of incident power on the reaction cuvette. The laser source was followed by the photo-elastic modulator described above with the axis oriented 45^o with respect to the electric vector of the incident light and with the half-wave modulation (50 kHz) set for 488 nm excitation. The demodulation circuitry following the photomultiplier provided a DC(t) and a rectified AC(t) which were converted to digital data by a high-speed digitizer (PCI-5122) from National Instruments (Austin, TX) with 14-bit resolution and 100 MHz bandwidth, through channels 0 and 1. The data acquisition was controlled by LabVIEW (Vr 8) software at a collection rate of 6120 data points/second and stored in spreadsheets. The AC(t) and DC(t) data were baseline corrected before obtaining the signal ratio (Eq 4) as a function of time (ρt).
The constant AGain is the instrumental amplitude gain and was evaluated by solving ρ(t) using the known steady state anisotropy (rss) of the complexes which is equivalent to the r(t) at t = ∞; and H, obtained from the equivalent grating factor (G) for the filters and photo multiplier tubes in the SF. For the probes used in here G was 0.82 and H = (1-G)/(1+G) = 0.099. Knowing Again and H, the AC(t) and DC(t) signals can be solved for r(t) and F(t) (Eqs 4 and 5) and the normalized fluorescence, F¯(t) , and corrected fluorescence anisotropy, rF¯(t), were obtained when F¯(0) and rF¯(0) were scaled to 1 at t = 0.
The F¯(t) (Eq 6) is equivalent to (I||) + 2 (I⊥) and proportional to quantum yield (QYi), molar absorptivity (εi) and to the formation or disappearance of the emitting species Xi(t); and rF¯(t) including the steady state anisotropies (rss) of each fluorescent species (Eq 7).
The possible reaction models were discriminated by the squared residuals of the observed and calculated association traces of both fluorescence and anisotropy fluorescence signals, F¯(t) and rF¯(t) , respectively.

## NC(CCCCNC(=O)CCCC[C@@H]1SC[C@@H]2NC(=O)N[C@@H]21)C(=O)NCCCCCNC(=O)c1ccc(-c2c3cc(F)c(=O)cc-3oc3cc(O)c(F)cc23)c(C(=O)O)c1 (stereo partly drawn) [BcO, Oregon green 488 Biocytin]
AV, pH 9, 15 (288.15 K), k (scaled)
  kon: 3.4e+06 M⁻¹ s⁻¹
AV, pH 9, 20 (293.15 K)
  ln(k): 15.5
  k(average): 5.37E+06
AV, pH 9, 20 (293.15 K), k (scaled)
  kon: 5.4e+06 M⁻¹ s⁻¹
AV, pH 9, 25 (298.15 K)
  ln(k): 15.9
  k(average): 7.85E+06
AV, pH 9, 25 (298.15 K), k (scaled)
  kon: 7.9e+06 M⁻¹ s⁻¹
AV, pH 9
  ΔG^ǂ: 4.7 ± 0.1 kcal/mol
  ΔS^ǂ: 30.9 ± 2.5 cal/°K·mol
AV, pH 10
  Ea^Forward: 14.9 ± 0.7 kcal/mol
  ΔG^ǂ: 4.7 ± 0.3 kcal/mol
  ΔS^ǂ: 34.1 ± 1.3 cal/°K·mol
AV, pH10, 10 (283.15 K)
  ln(k): 14.5
  k(average): 1.93E+06
AV, pH10, 10 (283.15 K), k (scaled)
  kon: 1.9e+06 M⁻¹ s⁻¹
AV, pH10, 15 (288.15 K)
  ln(k): 14.9
  k(average): 2.97E+06
AV, pH10, 15 (288.15 K), k (scaled)
  kon: 3e+06 M⁻¹ s⁻¹
AV, pH10, 20 (293.15 K)
  ln(k): 15.4
  k(average): 4.75E+06
AV, pH10, 20 (293.15 K), k (scaled)
  kon: 4.7e+06 M⁻¹ s⁻¹
AV, pH10, 25 (298.15 K)
  ln(k): 15.8
  k(average): 7.23E+06
AV, pH10, 25 (298.15 K), k (scaled)
  kon: 7.2e+06 M⁻¹ s⁻¹
AV, ph8
  slope (Arrhenius linear fit): -7283
AV, ph9
  slope (Arrhenius linear fit): -6979.6
  kcal/mol (from Arrhenius slope): 13.9 kcal/mol
AV, ph10
  slope (Arrhenius linear fit): -7486
  kcal/mol (from Arrhenius slope): 14.9 kcal/mol
  Temperature at which the rate constants of AV and SAV reacting with BcO are the same, x: 52.1 °C
x=(b1-b2)/(m2-m1) inverted
  Temperature at which the rate constants of AV and SAV reacting with BcO are the same, x: 325.2 °K
pH 8, AV 260 nM, 10°C, pH 8, read-out: kon AV-BcO F¯(t)
  kon: 2.4e+06 ± 100000 M⁻¹ s⁻¹
pH 8, AV 260 nM, 10°C, pH 8, read-out: kon AV-BcO r¯F(t)
  kon: 2.7e+06 ± 100000 M⁻¹ s⁻¹
pH 8, AV 260 nM, 15°C, pH 8, read-out: kon AV-BcO F¯(t)
  kon: 4.1e+06 ± 100000 M⁻¹ s⁻¹
pH 8, AV 260 nM, 15°C, pH 8, read-out: kon AV-BcO r¯F(t)
  kon: 4e+06 ± 100000 M⁻¹ s⁻¹
pH 8, AV 260 nM, 20°C, pH 8, read-out: kon AV-BcO F¯(t)
  kon: 5.7e+06 ± 100000 M⁻¹ s⁻¹
pH 8, AV 260 nM, 20°C, pH 8, read-out: kon AV-BcO r¯F(t)
  kon: 5.9e+06 ± 100000 M⁻¹ s⁻¹
pH 8, AV 260 nM, 25°C, pH 8, read-out: kon AV-BcO F¯(t)
  kon: 9.5e+06 ± 100000 M⁻¹ s⁻¹
pH 8, AV 260 nM, 25°C, pH 8, read-out: kon AV-BcO r¯F(t)
  kon: 9.5e+06 ± 100000 M⁻¹ s⁻¹
pH 8, AV 520 nM, 10°C, pH 8, read-out: kon AV-BcO F¯(t)
  kon: 2.6e+06 ± 200000 M⁻¹ s⁻¹
pH 8, AV 520 nM, 10°C, pH 8, read-out: kon AV-BcO r¯F(t)
  kon: 2.7e+06 ± 100000 M⁻¹ s⁻¹
pH 8, AV 520 nM, 15°C, pH 8, read-out: kon AV-BcO F¯(t)
  kon: 4e+06 ± 100000 M⁻¹ s⁻¹
pH 8, AV 520 nM, 15°C, pH 8, read-out: kon AV-BcO r¯F(t)
  kon: 3.8e+06 ± 100000 M⁻¹ s⁻¹
pH 8, AV 520 nM, 20°C, pH 8, read-out: kon AV-BcO F¯(t)
  kon: 5.9e+06 ± 300000 M⁻¹ s⁻¹
pH 8, AV 520 nM, 20°C, pH 8, read-out: kon AV-BcO r¯F(t)
  kon: 5.8e+06 ± 100000 M⁻¹ s⁻¹
pH 8, AV 520 nM, 25°C, pH 8, read-out: kon AV-BcO F¯(t)
  kon: 9.5e+06 ± 300000 M⁻¹ s⁻¹
pH 8, AV 520 nM, 25°C, pH 8, read-out: kon AV-BcO r¯F(t)
  kon: 9.5e+06 ± 100000 M⁻¹ s⁻¹
pH 8, AV 1040 nM, 10°C, pH 8, read-out: kon AV-BcO F¯(t)
  kon: 2.5e+06 ± 200000 M⁻¹ s⁻¹
pH 8, AV 1040 nM, 10°C, pH 8, read-out: kon AV-BcO r¯F(t)
  kon: 2.7e+06 ± 100000 M⁻¹ s⁻¹
pH 8, AV 1040 nM, 15°C, pH 8, read-out: kon AV-BcO F¯(t)
  kon: 3.9e+06 ± 200000 M⁻¹ s⁻¹
pH 8, AV 1040 nM, 15°C, pH 8, read-out: kon AV-BcO r¯F(t)
  kon: 4e+06 ± 200000 M⁻¹ s⁻¹
pH 8, AV 1040 nM, 20°C, pH 8, read-out: kon AV-BcO F¯(t)
  kon: 6e+06 ± 100000 M⁻¹ s⁻¹
pH 8, AV 1040 nM, 20°C, pH 8, read-out: kon AV-BcO r¯F(t)
  kon: 6.1e+06 ± 100000 M⁻¹ s⁻¹
pH 8, AV 1040 nM, 25°C, pH 8, read-out: kon AV-BcO F¯(t)
  kon: 9.7e+06 ± 300000 M⁻¹ s⁻¹
pH 8, AV 1040 nM, 25°C, pH 8, read-out: kon AV-BcO r¯F(t)
  kon: 9.4e+06 ± 200000 M⁻¹ s⁻¹
pH 8, AV, Arrhenius plot, 23°C and pH 8, read-out: kon
  kon: 7.8e+06 ± 4e+11 M⁻¹ s⁻¹
pH 8, AV, pH 8, 10°C, read-out: kon
  kon: 2.6e+06 ± 300000 M⁻¹ s⁻¹
pH 8, AV, pH 8, 15°C, read-out: kon
  kon: 3.9e+06 ± 300000 M⁻¹ s⁻¹
pH 8, AV, pH 8, 20°C, read-out: kon
  kon: 5.9e+06 ± 400000 M⁻¹ s⁻¹
pH 8, AV, pH 8, 25°C, read-out: kon
  kon: 9.5e+06 ± 400000 M⁻¹ s⁻¹
pH 9, AV, pH 9, 10°C, read-out: kon
  kon: 2.3e+06 ± 100000 M⁻¹ s⁻¹
pH 9, AV, pH 9, 15°C, read-out: kon
  kon: 3.4e+06 ± 100000 M⁻¹ s⁻¹
pH 9, AV, pH 9, 20°C, read-out: kon
  kon: 5.4e+06 ± 200000 M⁻¹ s⁻¹
pH 9, AV, pH 9, 25°C, calculated from an Arrhenius plot, read-out: kon
  kon: 7.9e+06 ± 300000 M⁻¹ s⁻¹
pH 10, AV, pH 10, 10°C, read-out: kon
  kon: 1.9e+06 ± 100000 M⁻¹ s⁻¹
pH 10, AV, pH 10, 15°C, read-out: kon
  kon: 3e+06 ± 100000 M⁻¹ s⁻¹
pH 10, AV, pH 10, 20°C, read-out: kon
  kon: 4.8e+06 ± 200000 M⁻¹ s⁻¹
pH 10, AV, pH 10, 25°C, calculated from an Arrhenius plot, read-out: kon
  kon: 7.2e+06 ± 300000 M⁻¹ s⁻¹
pH 8, 10°C
  half-time of association, rF¯(t): 1024 ms
pH 8, 15°C
  half-time of association, rF¯(t): 695 ms
pH 8, 20°C
  half-time of association, rF¯(t): 452 ms and 455 ms
pH 8, 25°C
  half-time of association, rF¯(t): 280 ms
AV 520 nM, pH 8, 20°C
  halftime of association, rF¯(t): 229 ms
AV 1040 nM, pH 8, 20°C
  halftime of association, rF¯(t): 109 ms
Untreated AV, 15°C, read-out: kon
  kon: 3.9e+06 M⁻¹ s⁻¹
